Measurements taken from patent US6706663B2, “Herbicidal 3-heterocyclic substituted benzisothiazole and benzisoxazole compounds” (Wyeth, priority 2000, dated 2004).

Legend:
[1] = tested on: IPOHE (Ipomoea hederacea); experiment: Postemergence herbicidal evaluation; type: in vivo, (L.) Jacq.
Summary of the method: (§1)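 Seedlings grown about two weeks in flats, sprayed, then kept under standard greenhouse care. Rated visually 4–5 weeks after treatment on a 0–9 scale (stand, vigour, malformation, size, chlorosis, overall appearance) relative to untreated control; repeat tests averaged.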

[2] = tested on: CHEAL (Chenopodium album); experiment: Postemergence herbicidal evaluation; type: in vivo, L.
Summary of the method: as §1

[3] = tested on: CASOB (Cassia obtusifolia); experiment: Postemergence herbicidal evaluation; type: in vivo, L.
Summary of the method: as §1

[4] = tested on: AMBEL (Ambrosia artemisifolia); experiment: Postemergence herbicidal evaluation; type: in vivo, L.
Summary of the method: as §1

[5] = tested on: ORYSAT (Rice, Tebonnet); experiment: Postemergence herbicidal evaluation; type: in vivo, Oryza sativa, (L.) Tebonnet
Summary of the method: as §1

[6] = tested on: GLXMAW (Soybean, Williams); experiment: Preemergence herbicidal evaluation; type: in vivo, Glycine max, (L.) Merr. cv Williams; settings: preemergence, rated 4-5 weeks after treatment
[7] = tested on: MOOVA (Monochoria vaginalis); experiment: Flooded paddy, preemergence weed control; type: in vivo, Presl.; settings: rated 3-4 weeks after treatment, 0-9 rating scale
Summary of the method: (§2)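 Visual 0-9 rating versus control, scoring stand, vigor, malformation, size, chlorosis and overall appearance. Silt loam soil, propagules in top 0.5 cm; flood depth 1.5–3 cm held for the whole test; greenhouse.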

[8] = tested on: TRZAWR (Wheat, Winter, cv Riband); experiment: Preemergence herbicidal evaluation; type: in vivo, Triticum aestivum; settings: preemergence, rated 4-5 weeks after treatment
Summary of the method: (§3)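 Seeds planted in potting soil cups and sprayed preemergence with aqueous acetone compound solution. Greenhouse-grown; rated 4–5 weeks after treatment on a 0-9 visual scale (stand, vigor, malformation, size, chlorosis, appearance) versus control.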

[9] = tested on: GLXMAW (Soybean, Williams); experiment: Postemergence herbicidal evaluation; type: in vivo, Glycine max, (L.) Merr. cv Williams
Summary of the method: as §1

[10] = tested on: ORYSAT (Rice, Tebonnet); experiment: Flooded paddy, post-transplant rice tolerance; type: in vivo, Oryza sativa, (L.) Tebonnet; settings: flooded paddy, post-transplant rice, rated 3-4 weeks after treatment, 0-9 rating scale
Summary of the method: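 Ten-day-old seedlings, 2/pot, silt loam; flood kept 1.5–3 cm over soil; herbicide applied post-transplant; greenhouse; score 0–9 visual vs control.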

[11] = tested on: IPOHE (Ipomoea hederacea); experiment: Preemergence herbicidal evaluation; type: in vivo, (L.) Jacq.; settings: preemergence, rated 4-5 weeks after treatment
[12] = tested on: CHEAL (Chenopodium album); experiment: Preemergence herbicidal evaluation; type: in vivo, L.; settings: preemergence, rated 4-5 weeks after treatment
Summary of the method: as §3

[13] = tested on: CASOB (Cassia obtusifolia); experiment: Preemergence herbicidal evaluation; type: in vivo, L.; settings: preemergence, rated 4-5 weeks after treatment
Summary of the method: as §3

[14] = tested on: AMBEL (Ambrosia artemisifolia); experiment: Preemergence herbicidal evaluation; type: in vivo, L.; settings: preemergence, rated 4-5 weeks after treatment
Summary of the method: as §3

[15] = tested on: ZEAMX (Corn, Field); experiment: Preemergence herbicidal evaluation; type: in vivo, Zea mays, L.; settings: preemergence, rated 4-5 weeks after treatment
[16] = tested on: CYPIR (Cyperus iria); experiment: Flooded paddy, preemergence weed control; type: in vivo; settings: rated 3-4 weeks after treatment, 0-9 rating scale
Summary of the method: as §2

[17] = tested on: SETVI (Setaria viridis); experiment: Preemergence herbicidal evaluation; type: in vivo, (L.) Beau; settings: preemergence, rated 4-5 weeks after treatment
Summary of the method: as §3

[18] = tested on: ECHCG (Echinochloa crus-galli); experiment: Preemergence herbicidal evaluation; type: in vivo, (L.) Beau; settings: preemergence, rated 4-5 weeks after treatment
Summary of the method: as §3

[19] = tested on: ABUTH (Abutilon theophrasti); experiment: Postemergence herbicidal evaluation; type: in vivo, Medic.
Summary of the method: as §1

[20] = tested on: ABUTH (Abutilon theophrasti); experiment: Preemergence herbicidal evaluation; type: in vivo, Medic.; settings: preemergence, rated 4-5 weeks after treatment

## Cc1cccnc1-c1nsc2ccc(-n3c(=O)cc(C(F)(F)F)n(C)c3=O)cc12 [Compound 19, 1-methyl-3-[3-(3-methyl-2-pyridyl)-1,2-benzisothiazol-5-yl]-6-(trifluoromethyl)uracil]
[1]; rate 0.0320 kg/ha
  Postemergence herbicidal rating, IPOHE: 8.0
[1]; rate 0.0620 kg/ha
  Postemergence herbicidal rating, IPOHE: 9.0
[2]; rate 0.0320 kg/ha
  Postemergence herbicidal rating, CHEAL: 8.0
[2]; rate 0.0620 kg/ha
  Postemergence herbicidal rating, CHEAL: 9.0
[3]; rate 0.0320 kg/ha
  Postemergence herbicidal rating, CASOB: 1.5
[3]; rate 0.0620 kg/ha
  Postemergence herbicidal rating, CASOB: 5.0
[4]; rate 0.0320 kg/ha
  Postemergence herbicidal rating, AMBEL: 9.0
[4]; rate 0.0620 kg/ha
  Postemergence herbicidal rating, AMBEL: 9.0
[5]; rate 0.0320 kg/ha
  Postemergence herbicidal rating, ORYSAT: 3.3
[5]; rate 0.0620 kg/ha
  Postemergence herbicidal rating, ORYSAT: 3.5
[6]; Rate 0.0620 kg/ha
  GLXMAW preemergence herbicidal rating: 6.3
[6]; Rate 0.1250 kg/ha
  GLXMAW preemergence herbicidal rating: 6.7
[6]; Rate 0.2500 kg/ha
  GLXMAW preemergence herbicidal rating: 7.7
[7]; rate 0.0080 kg/ha
  herbicidal rating, MOOVA: 4.0
[7]; rate 0.0320 kg/ha
  herbicidal rating, MOOVA: 9.0
[7]; rate 0.1250 kg/ha
  herbicidal rating, MOOVA: 9.0
[8]; Rate 0.0620 kg/ha
  TRZAWR preemergence herbicidal rating: 5.5
[8]; Rate 0.1250 kg/ha
  TRZAWR preemergence herbicidal rating: 8.0
[8]; Rate 0.2500 kg/ha
  TRZAWR preemergence herbicidal rating: 8.5
[9]; rate 0.0320 kg/ha
  Postemergence herbicidal rating, GLXMAW: 8.3
[9]; rate 0.0620 kg/ha
  Postemergence herbicidal rating, GLXMAW: 8.0
[10]; rate 0.0080 kg/ha
  herbicidal rating, ORYSAT (rice tolerance): 2.0
[10]; rate 0.0320 kg/ha
  herbicidal rating, ORYSAT (rice tolerance): 6.5
[10]; rate 0.1250 kg/ha
  herbicidal rating, ORYSAT (rice tolerance): 8.0
[11]; Rate 0.0620 kg/ha
  IPOHE preemergence herbicidal rating: 9.0
[11]; Rate 0.1250 kg/ha
  IPOHE preemergence herbicidal rating: 8.7
[11]; Rate 0.2500 kg/ha
  IPOHE preemergence herbicidal rating: 9.0
[12]; Rate 0.0620 kg/ha
  CHEAL preemergence herbicidal rating: 9.0
[12]; Rate 0.1250 kg/ha
  CHEAL preemergence herbicidal rating: 9.0
[12]; Rate 0.2500 kg/ha
  CHEAL preemergence herbicidal rating: 9.0
[13]; Rate 0.0620 kg/ha
  CASOB preemergence herbicidal rating: 4.7
[13]; Rate 0.1250 kg/ha
  CASOB preemergence herbicidal rating: 5.7
[13]; Rate 0.2500 kg/ha
  CASOB preemergence herbicidal rating: 8.3
[14]; Rate 0.0620 kg/ha
  AMBEL preemergence herbicidal rating: 6.7
[14]; Rate 0.1250 kg/ha
  AMBEL preemergence herbicidal rating: 9.0
[14]; Rate 0.2500 kg/ha
  AMBEL preemergence herbicidal rating: 9.0
[15]; Rate 0.0620 kg/ha
  ZEAMX preemergence herbicidal rating: 7.0
[15]; Rate 0.1250 kg/ha
  ZEAMX preemergence herbicidal rating: 7.0
[15]; Rate 0.2500 kg/ha
  ZEAMX preemergence herbicidal rating: 7.7
[16]; rate 0.0080 kg/ha
  herbicidal rating, CYPIR: 0.0
[16]; rate 0.0320 kg/ha
  herbicidal rating, CYPIR: 5.0
[16]; rate 0.1250 kg/ha
  herbicidal rating, CYPIR: 9.0
[17]; Rate 0.0620 kg/ha
  SETVI preemergence herbicidal rating: 9.0
[17]; Rate 0.1250 kg/ha
  SETVI preemergence herbicidal rating: 9.0
[17]; Rate 0.2500 kg/ha
  SETVI preemergence herbicidal rating: 9.0
[18]; Rate 0.0620 kg/ha
  ECHCG preemergence herbicidal rating: 9.0
[18]; Rate 0.1250 kg/ha
  ECHCG preemergence herbicidal rating: 9.0
[18]; Rate 0.2500 kg/ha
  ECHCG preemergence herbicidal rating: 9.0
[19]; rate 0.0320 kg/ha
  Postemergence herbicidal rating, ABUTH: 9.0
[19]; rate 0.0620 kg/ha
  Postemergence herbicidal rating, ABUTH: 9.0
[20]; Rate 0.0620 kg/ha
  ABUTH preemergence herbicidal rating: 7.7
[20]; Rate 0.1250 kg/ha
  ABUTH preemergence herbicidal rating: 9.0
[20]; Rate 0.2500 kg/ha
  ABUTH preemergence herbicidal rating: 9.0
